Measured values as given in patent US20090247461A1, “METHODS FOR THERAPEUTIC TREATMENT OF PAIN” (priority 2004, published 2009).

Experiments:
[1] = test system: sciatic nerve ligation injury model; test: Heat test before and after administration of serotonin depletor, opioid antagonist, α- or β-adrenergic receptor blocker; type: in vivo, rat; settings: 3 weeks after ligation; for heat test with vs without / before vs after the depletor or blocker, control group: saline control group, 5,7-DHT intradural, naloxone 5 mg/kg, propranolol 10 mg/kg
Protocol: (§1) A sciatic nerve ligation injury model was prepared by modifying the neuropathic pain model published by Bennett et al. according to the method of Takeba (Pain, Vol. 33, pp. 87-107, 1988; Ehime Igaku (Ehime Medical Journal), Vol. 21, pp. 192-206, 2002). Under anesthesia by inhalation of 3% halothane and nitrous oxide, bilateral sciatic nerves of 8- to 12-week old female Wistar rats (Clea Japan, Inc., Osaka) were exposed and ligated at the central level of the femur along with a 27-gauge injection needle on the both sides by using a 4-0 polyglycolic acid suture at 4 sites at intervals of 1 mm for both sides. Then, the injection needle was removed to prepare a sciatic nerve ligation injury model. The ligation was attained to such a degree that the crural muscles slightly contractable by a stimulus given to the nerve, and care was taken not to cause injury in the axon by the ligation operation itself.
A solution of ginsenoside Rb1 (0.10 or 0.50 μg/μl) in a volume of 120 μl or an equivalent volume of saline was intravenously administered by one-shot to rats 24 hours after the sciatic nerve ligation. Then, ginsenoside Rb1 was intravenously administered continuously by using the continuous injection pump at a dose of 12 μg/day (hereinafter referred to as “S12”) or 60 μg/day (hereinafter referred to as “S60”) and a rate of 0.25 μL/hour for 4 weeks. Similarly, saline was intravenously administered continuously for 4 weeks as the control group.
(§2) To determine thermal paw withdrawal latency, a heat test was performed by using Plantar Test produced by Ugo Basile (Planter test 7370, Ugo Basile, Italy) according to the method of Hargreaves et al. (Pain, Vol. 32, pp. 77-88, 1988). Rats were placed on a plastic table maintained at a temperature of 23 to 24° C. and stimulated on the sole by using a thermal stimulator, and withdrawal latency (seconds) was measured. Occurrence of hyperalgesia was determined on the basis of shortening of the latency. The latency was measured 3 times for both the soles always at an interval of 5 minutes, and the average of the results of 6 times in total of measurements was used as a measured value.
To elucidate the action mechanism of Rb1, examination was performed by using depletors or blockers against substances reported to be involved in the descending pain signal transmission in the spinal cord, such as serotonin depletors, opioid receptor antagonists, α-adrenergic receptor blockers, and β-adrenergic receptor blockers (Biol. Pharm. Bull., 22-7, pp. 691-697, 1999). The heat test was performed 24 hours after the sciatic nerve ligation, and only rats showing an average latency for both feet of 90% or lower of the same before the operation were used. Animals in a number of 48 in total were arbitrarily divided into 8 groups (6 animals per group) to prepare Rb1-administered groups and a control group. A serotonin depletor, opioid receptor antagonist, α-adrenergic receptor blocker and β-adrenergic receptor blocker were each administered 3 weeks after the ligation, the heat test was performed before and after the administration, and the results were compared.
The serotonin depletor, 5,7-dihydroxytryptamine (5,7-DHT, ICN Biomedicals Inc., Ohio, U.S.A), was intradurally administered in an amount of […] 1 week before the measurement, and the heat test was performed 3 weeks after the ligation. Further, the heat test was performed 3 weeks after the ligation, on the following day, 5 mg/kg of the opioid receptor antagonist, naloxone (USP, Rockville, U.S.A), 10 mg/kg of the β-adrenergic receptor blocker, propranolol (SIGMA-ALDRICH Co., St. Louis, U.S.A), and 20 mg/kg of the α-adrenergic receptor blocker, phentolamine (SIGMA-ALDRICH Co., St. Louis, U.S.A), were each subcutaneously injected, and the heat test was performed again one hour later.

[2] = test system: mice; settings: cited from earlier work
[3] = test system: sciatic nerve ligation injury model; test: Heat test (thermal paw withdrawal latency) in sciatic nerve ligation injury model; type: in vivo, rat; settings: continuously administered i.v. for 4 weeks from 24 hours after sciatic nerve ligation (12 or 60 μg/day); 3 weeks after the ligation and thereafter; vs saline control
Protocol: as §1, with “The ligation was attained to such a degree that the crural muscles slightly contractable by a stimulus given to the nerve, and care was taken not to cause injury in the axon by the ligation operation itself.” left out
as §2

[4] = test system: sciatic nerve ligation injury model; test: Pressure test (von Frey withdrawal threshold) in sciatic nerve ligation injury model; type: in vivo, rat; settings: continuously administered i.v. for 4 weeks from 24 hours after sciatic nerve ligation, vs saline control
Protocol: as §1, with “The ligation was attained to such a degree that the crural muscles slightly contractable by a stimulus given to the nerve, and care was taken not to cause injury in the axon by the ligation operation itself.” left out
To measure the pain threshold for a mechanical stimulus (von Frey withdrawal threshold), the von Frey hair test was performed in the same manner as in the Semmes-Weinstein test (Z. Gesamte Neurol. Psychiat., Vol. 79, pp. 324-333, 1922; Perceptual and Motor Skills, Vol. 14, pp. 351-354, 1962; The Journal of Hand Surgery, Vol. 3, pp. 211-216, 1978), which is clinically performed. […] In this procedure, the pain threshold (g) for the pressure stimuli to both the soles was measured twice for each time, and the average of the results obtained in measurements of 4 times in total was used as a measured value.

[5] = test system: α2A-adrenergic receptor mRNA; test: Measurement of α2A-adrenergic receptor mRNA in the spinal cord by RT-PCR; type: in vivo, rat; settings: 60 μg/day i.v. continuously; 3 weeks after sciatic nerve ligation; compared with control group and sham operation group
Protocol: The spinal cord in the sciatic nerve innervation territory was removed from rats of the sham operation group (n=7) and rats 3 weeks after the sciatic nerve ligation (each n=7) which were intravenously administered with saline or 60 μg/day of ginsenoside Rb1 (S60) continuously from 24 hours after the sciatic nerve ligation, and total RNA was extracted by using ISOGEN (Nippon Gene, Tokyo). The extracted total RNA was treated with DNase, and single-stranded cDNA was synthesized by using oligo-dT primers and Moloney murine leukemia virus reverse transcriptase (Life Technologies, Rockville, USA). The sequences of the primers used in this example were as follows.
PCR was performed under the following condition using Taq polymerase (Takara, Tokyo). For β-actin, after a reaction at 94° C. for 5 minutes, a cycle of heat denaturation at 94° C. for 1 minute, annealing at 55° C. for 1 minute and 30 seconds and elongation at 72° C. for 1 minute and 30 seconds was repeated 25 times. For α2A-adrenergic receptor, after a reaction at 94° C. for 2 minutes, a cycle of heat denaturation at 94° C. for 1 minute, annealing at 60° C. for 1 minute and elongation at 72° C. for 1 minute was repeated 30 times. As the internal control, β-actin was used.

[6] = test system: α2A-adrenergic receptor protein; test: Expression of α2A-adrenergic receptor protein in the spinal cord (immunoblot); type: in vivo, rat; settings: 60 μg/day i.v. continuously; 3 weeks after sciatic nerve ligation; compared with control group and sham operation group
Protocol: The spinal cord in the sciatic nerve innervation territory was removed from rats of the sham operation group (n=3) and rats 3 weeks after the sciatic nerve ligation (each n=3) which were intravenously administered with saline or 60 μg/day of ginsenoside Rb1 (S60) continuously from 24 hours after the sciatic nerve ligation, added to 10 times in volume of 50 mM phosphate buffer, 100 μM pAPMSF, 0.5% Triton-X and 0.5% SDS, and homogenized. The homogenate was added with a half volume of 6% SDS (+β-mercaptoethanol), incubated at 99° C. for 10 minutes and centrifuged at 15,000 rpm and 4° C. for 10 minutes, and the supernatant was used as a sample. Electrophoresis was performed on 10% SDS polyacrylamide, and then the protein was transferred on a polyvinylidine difluoride membrane (Millipore, Bedford, U.S.A.) by using a transblotting apparatus. Western blotting was performed by using anti-α2A-adrenoceptor antibody (ALEXIS BIOCHEMICALS, San Diego, USA) as the primary antibody and anti-rabbit IgG conjugated with alkaline phosphatase (SIGMA Chemicals, St. Louis, U.S.A) as the secondary antibody.

[7] = test system: transient forebrain ischemia; settings: oral (red ginseng powder) or intraperitoneal (crude ginseng saponin, ginsenoside Rb1) over one week before ischemia; cited from earlier work
[8] = test system: transient forebrain ischemia; settings: continuously injected into the brain ventricle for 7 days after ischemia, cited from earlier work

## C=CCN1CC[C@]23c4c5ccc(O)c4O[C@H]2C(=O)CC[C@@]3(O)[C@H]1C5 [naloxone, reference compound]
[1]; phentolamine 20 mg/kg s.c.
  heat test with vs without / before vs after the depletor or blocker, control group: no significant difference

## CC(C)=CCC[C@](C)(O[C@@H]1O[C@H](CO)[C@@H](O)[C@H](O)[C@H]1O)[C@H]1CC[C@]2(C)[C@@H]1[C@H](O)C[C@@H]1[C@@]3(C)CC[C@H](O)C(C)(C)[C@@H]3[C@@H](O[C@@H]3O[C@H](CO)[C@@H](O)[C@H](O)[C@H]3O[C@@H]3O[C@@H](C)[C@H](O)[C@@H](O)[C@H]3O)C[C@]12C [Re, ginsenoside Re]
[2]
  analgesic effect: analgesic effect

## CC(C)=CCC[C@](C)(O[C@@H]1O[C@H](CO)[C@@H](O)[C@H](O)[C@H]1O)[C@H]1CC[C@]2(C)[C@@H]1[C@H](O)C[C@@H]1[C@@]3(C)CC[C@H](O[C@@H]4O[C@H](CO)[C@@H](O)[C@H](O)[C@H]4O[C@@H]4O[C@H](CO)[C@@H](O)[C@H](O)[C@H]4O)C(C)(C)[C@@H]3CC[C@]12C [Rd, ginsenoside Rd]
[2]
  analgesic effect: analgesic effect

## CC(C)=CCC[C@](C)(O[C@@H]1O[C@H](CO[C@@H]2O[C@@H](CO)[C@H](O)[C@H]2O)[C@@H](O)[C@H](O)[C@H]1O)[C@H]1CC[C@]2(C)[C@@H]1[C@H](O)C[C@@H]1[C@@]3(C)CC[C@H](O[C@@H]4O[C@H](CO)[C@@H](O)[C@H](O)[C@H]4O[C@@H]4O[C@H](CO)[C@@H](O)[C@H](O)[C@H]4O)C(C)(C)[C@@H]3CC[C@]12C [Rc, ginsenoside Rc]
[2]
  analgesic effect: analgesic effect

## Cc1ccc(N(CC2=NCCN2)c2cccc(O)c2)cc1 [phentolamine, reference compound]
[1]; phentolamine 20 mg/kg s.c.
  heat test with vs without / before vs after the depletor or blocker, control group: no significant difference

## CC(C)NCC(O)COc1cccc2ccccc12 (stereo not drawn) [propranolol, reference compound]
[1]; phentolamine 20 mg/kg s.c.
  heat test with vs without / before vs after the depletor or blocker, control group: no significant difference

## NCCc1c[nH]c2c(O)cc(O)cc12 [5,7-DHT, 5,7-dihydroxytryptamine, reference compound]
[1]; phentolamine 20 mg/kg s.c.
  heat test with vs without / before vs after the depletor or blocker, control group: no significant difference

## CC(C)=CCC[C@](C)(O)[C@H]1CC[C@]2(C)[C@@H]1[C@H](O)C[C@@H]1[C@@]3(C)CC[C@H](O)C(C)(C)[C@@H]3[C@@H](O[C@@H]3O[C@H](CO)[C@@H](O)[C@H](O)[C@H]3O[C@@H]3O[C@H](CO)[C@@H](O)[C@H](O)[C@H]3O)C[C@]12C [Rf, ginsenoside Rf]
[2]
  analgesic effect: analgesic effect

## CC(C)=CCC[C@](C)(O[C@@H]1O[C@H](CO[C@@H]2O[C@H](CO)[C@@H](O)[C@H](O)[C@H]2O)[C@@H](O)[C@H](O)[C@H]1O)[C@H]1CC[C@]2(C)[C@@H]1[C@H](O)C[C@@H]1[C@@]3(C)CC[C@H](O[C@@H]4O[C@H](CO)[C@@H](O)[C@H](O)[C@H]4O[C@@H]4O[C@H](CO)[C@@H](O)[C@H](O)[C@H]4O)C(C)(C)[C@@H]3CC[C@]12C [ginsenoside Rb1]
[3]
  hyperalgesia (heat test, withdrawal latency): hyperalgesia was significantly relieved
[4]
  allodynia (pressure test, von Frey pain threshold): allodynia was not ameliorated
[4]; listed as Rb1
  allodynia (pressure test, von Frey pain threshold): amelioration of allodynia was not observed
[1]; 5,7-DHT intradurally 60 μL g 1 week before measurement
  heat test, animals administered vs not administered with 5,7-DHT, Rb1-administered groups: no significant difference
[1]; naloxone 5 mg/kg s.c., heat test again one hour later
  heat test before and after administration of naloxone, Rb1-administered groups: no significant difference
[1]; phentolamine 20 mg/kg s.c., heat test again one hour later
  hyperalgesia suppressing effect after administration of phentolamine, Rb1-administered groups: significantly inhibited
[1]; propranolol 10 mg/kg s.c., heat test again one hour later
  heat test before and after administration of propranolol, Rb1-administered groups: no significant difference
[5]
  expression level of the α2A-adrenergic receptor mRNA in the spinal cord: significantly increased
[6]
  expression level of the α2A-adrenergic receptor protein in the spinal cord: significantly increased
[7]
  delayed nerve cell death: inhibition of delayed nerve cell death
  learning and behavioral impairment: improvement of learning and behavioral impairment
[8]
  delayed nerve cell death in the hippocampus CA1 region: significantly reduced
[8]; dose-dependent, compared with a control
  response latency in a passive avoidance learning experiment: significantly prolonged
